{
  "source": "the NIST ThermoML archive (doi:10.1021/je5010164)",
  "conditions": "Liquid, Frequency=8 MHz, Pulse-echo method",
  "note": "± gives the expanded uncertainty stated by the source.",
  "data": [
    {"smiles": "C1CCCC1", "note": "[cyclopentane]", "values": [
      {"measurement": "speed of sound", "setting": "258.15 K, 100 kPa", "value": "1419.1 ± 3.1", "unit": "m/s"},
      {"measurement": "speed of sound", "setting": "258.15 K, 5072 kPa", "value": "1446.1 ± 3.2", "unit": "m/s"},
      {"measurement": "speed of sound", "setting": "258.15 K, 10244 kPa", "value": "1473 ± 3.2", "unit": "m/s"},
      {"measurement": "speed of sound", "setting": "258.15 K, 15262 kPa", "value": "1498.1 ± 3.3", "unit": "m/s"},
      {"measurement": "speed of sound", "setting": "258.15 K, 20158 kPa", "value": "1521.7 ± 3.3", "unit": "m/s"},
      {"measurement": "speed of sound", "setting": "258.15 K, 25083 kPa", "value": "1544.5 ± 3.4", "unit": "m/s"},
      {"measurement": "speed of sound", "setting": "258.15 K, 30141 kPa", "value": "1567.1 ± 3.4", "unit": "m/s"},
      {"measurement": "speed of sound", "setting": "273.15 K, 100 kPa", "value": "1336.6 ± 3", "unit": "m/s"},
      {"measurement": "speed of sound", "setting": "273.15 K, 5169 kPa", "value": "1366.7 ± 3", "unit": "m/s"},
      {"measurement": "speed of sound", "setting": "273.15 K, 10059 kPa", "value": "1394.3 ± 3.1", "unit": "m/s"},
      {"measurement": "speed of sound", "setting": "273.15 K, 15219 kPa", "value": "1422 ± 3.2", "unit": "m/s"},
      {"measurement": "speed of sound", "setting": "273.15 K, 20251 kPa", "value": "1447.9 ± 3.2", "unit": "m/s"},
      {"measurement": "speed of sound", "setting": "273.15 K, 25184 kPa", "value": "1472.3 ± 3.2", "unit": "m/s"},
      {"measurement": "speed of sound", "setting": "273.15 K, 30227 kPa", "value": "1496.3 ± 3.3", "unit": "m/s"},
      {"measurement": "speed of sound", "setting": "293.15 K, 105 kPa", "value": "1230.1 ± 2.8", "unit": "m/s"},
      {"measurement": "speed of sound", "setting": "293.15 K, 5059 kPa", "value": "1263 ± 2.9", "unit": "m/s"},
      {"measurement": "speed of sound", "setting": "293.15 K, 10088 kPa", "value": "1294.4 ± 2.9", "unit": "m/s"},
      {"measurement": "speed of sound", "setting": "293.15 K, 15198 kPa", "value": "1324.6 ± 3", "unit": "m/s"},
      {"measurement": "speed of sound", "setting": "293.15 K, 20121 kPa", "value": "1352.3 ± 3", "unit": "m/s"},
      {"measurement": "speed of sound", "setting": "293.15 K, 25192 kPa", "value": "1379.6 ± 3.1", "unit": "m/s"},
      {"measurement": "speed of sound", "setting": "293.15 K, 30134 kPa", "value": "1405 ± 3.1", "unit": "m/s"},
      {"measurement": "speed of sound", "setting": "313.15 K, 107 kPa", "value": "1126.8 ± 2.6", "unit": "m/s"},
      {"measurement": "speed of sound", "setting": "313.15 K, 5113 kPa", "value": "1164 ± 2.7", "unit": "m/s"},
      {"measurement": "speed of sound", "setting": "313.15 K, 10058 kPa", "value": "1198.3 ± 2.7", "unit": "m/s"},
      {"measurement": "speed of sound", "setting": "313.15 K, 15132 kPa", "value": "1231.3 ± 2.8", "unit": "m/s"},
      {"measurement": "speed of sound", "setting": "313.15 K, 20097 kPa", "value": "1261.8 ± 2.9", "unit": "m/s"},
      {"measurement": "speed of sound", "setting": "313.15 K, 25098 kPa", "value": "1291 ± 2.9", "unit": "m/s"},
      {"measurement": "speed of sound", "setting": "313.15 K, 30162 kPa", "value": "1319.2 ± 3", "unit": "m/s"},
      {"measurement": "speed of sound", "setting": "333.15 K, 149 kPa", "value": "1026.6 ± 2.4", "unit": "m/s"},
      {"measurement": "speed of sound", "setting": "333.15 K, 5035 kPa", "value": "1067.6 ± 2.5", "unit": "m/s"},
      {"measurement": "speed of sound", "setting": "333.15 K, 10139 kPa", "value": "1107 ± 2.6", "unit": "m/s"},
      {"measurement": "speed of sound", "setting": "333.15 K, 15108 kPa", "value": "1142.5 ± 2.6", "unit": "m/s"},
      {"measurement": "speed of sound", "setting": "333.15 K, 20130 kPa", "value": "1176.2 ± 2.7", "unit": "m/s"},
      {"measurement": "speed of sound", "setting": "333.15 K, 25152 kPa", "value": "1208 ± 2.8", "unit": "m/s"},
      {"measurement": "speed of sound", "setting": "333.15 K, 30170 kPa", "value": "1238 ± 2.8", "unit": "m/s"},
      {"measurement": "speed of sound", "setting": "353.15 K, 261 kPa", "value": "929.4 ± 2.3", "unit": "m/s"},
      {"measurement": "speed of sound", "setting": "353.15 K, 5019 kPa", "value": "974.63 ± 2.3", "unit": "m/s"},
      {"measurement": "speed of sound", "setting": "353.15 K, 10069 kPa", "value": "1018.2 ± 2.4", "unit": "m/s"},
      {"measurement": "speed of sound", "setting": "353.15 K, 15107 kPa", "value": "1058.1 ± 2.5", "unit": "m/s"},
      {"measurement": "speed of sound", "setting": "353.15 K, 20063 kPa", "value": "1094.4 ± 2.6", "unit": "m/s"},
      {"measurement": "speed of sound", "setting": "353.15 K, 25009 kPa", "value": "1128.3 ± 2.6", "unit": "m/s"},
      {"measurement": "speed of sound", "setting": "353.15 K, 30157 kPa", "value": "1161.5 ± 2.7", "unit": "m/s"}
    ]}
  ]
}
